Test results published in paper PMC11775380, “Discovery of Novel Nav1.7-Selective Inhibitors with the 1H-Indole-3-Propionamide Scaffold for Effective Pain Relief” (Research, 2025).

What was measured:
[1] = target: T1, Nav1.7 Y1548A/F1609A (Homo sapiens, UniProt Q15858, F1609A/Y1548A); experiment: Multiple site-directed mutagenesis, inhibition by patch clamp; format: cell-based; details: 1 μM
T1 construct: expressed in transfected cells; host or cells: HEK293T
From the text: (§1) To further investigate the roles of these residues in WN2-R binding, 3 combinations of double or triple site-directed mutagenesis were introduced, including Y1548A/F1609A (to investigate the function of phenyl ring-containing residues surrounding WN2-R, Fig. 4E), E1545A/E1600A (to examine the importance of negatively charged residues at the binding site entrance, Fig. 4F), and Y1548A/V1552A/M1593A (to understand the role of the outer hydrophobic wall formed by these residues in ligand binding, Fig. 4G).
(§2) Whole-cell patch-clamp recordings were conducted at 25 ± 2 °C, utilizing an EPC 10USB patch-clamp amplifier (HEKA Elektronik, Lambrecht, Germany). Pipettes, with access resistance between 2.0 and 3.0 MΩ, were pulled from borosilicate glass capillary tubes using a 2-step vertical microelectrode puller (PC-10, Narishige Group, Tokyo, Japan). Voltage-clamp recordings were obtained with PatchMaster software v2 × 73 (HEKA Elektronik) 5 min after establishing whole-cell configuration, sampled at 20 kHz, and filtered at 5 kHz. To minimize voltage errors, 80% series resistance compensation was applied. Pipettes were filled with 140 mM CsF, 10 mM NaCl, 1 mM EGTA, and 10 mM HEPES (pH=7.4, adjusted with CsOH). The external solution contained 140 mM NaCl, 2 mM CaCl2, 1 mM MgCl2, 5 mM KCl, 10 mM HEPES, and 10 mM glucose (pH=7.4, adjusted with NaOH). IC50 values were determined in HEK293T or ND7/23 cell lines by voltage clamping at −80 mV, followed by stepping to the V1/2 of inactivation for 8 s to facilitate compound binding.

[2] = target: T2, Nav1.7 Y1548A/V1552A/M1593A (Homo sapiens, UniProt Q15858, M1593A/V1552A/Y1548A); experiment: as above; format: cell-based; details: 1 μM
T2 construct: expressed in transfected cells; host or cells: HEK293T
T2 sequence (Q15858 whole entry Y1548A/V1552A/M1593A): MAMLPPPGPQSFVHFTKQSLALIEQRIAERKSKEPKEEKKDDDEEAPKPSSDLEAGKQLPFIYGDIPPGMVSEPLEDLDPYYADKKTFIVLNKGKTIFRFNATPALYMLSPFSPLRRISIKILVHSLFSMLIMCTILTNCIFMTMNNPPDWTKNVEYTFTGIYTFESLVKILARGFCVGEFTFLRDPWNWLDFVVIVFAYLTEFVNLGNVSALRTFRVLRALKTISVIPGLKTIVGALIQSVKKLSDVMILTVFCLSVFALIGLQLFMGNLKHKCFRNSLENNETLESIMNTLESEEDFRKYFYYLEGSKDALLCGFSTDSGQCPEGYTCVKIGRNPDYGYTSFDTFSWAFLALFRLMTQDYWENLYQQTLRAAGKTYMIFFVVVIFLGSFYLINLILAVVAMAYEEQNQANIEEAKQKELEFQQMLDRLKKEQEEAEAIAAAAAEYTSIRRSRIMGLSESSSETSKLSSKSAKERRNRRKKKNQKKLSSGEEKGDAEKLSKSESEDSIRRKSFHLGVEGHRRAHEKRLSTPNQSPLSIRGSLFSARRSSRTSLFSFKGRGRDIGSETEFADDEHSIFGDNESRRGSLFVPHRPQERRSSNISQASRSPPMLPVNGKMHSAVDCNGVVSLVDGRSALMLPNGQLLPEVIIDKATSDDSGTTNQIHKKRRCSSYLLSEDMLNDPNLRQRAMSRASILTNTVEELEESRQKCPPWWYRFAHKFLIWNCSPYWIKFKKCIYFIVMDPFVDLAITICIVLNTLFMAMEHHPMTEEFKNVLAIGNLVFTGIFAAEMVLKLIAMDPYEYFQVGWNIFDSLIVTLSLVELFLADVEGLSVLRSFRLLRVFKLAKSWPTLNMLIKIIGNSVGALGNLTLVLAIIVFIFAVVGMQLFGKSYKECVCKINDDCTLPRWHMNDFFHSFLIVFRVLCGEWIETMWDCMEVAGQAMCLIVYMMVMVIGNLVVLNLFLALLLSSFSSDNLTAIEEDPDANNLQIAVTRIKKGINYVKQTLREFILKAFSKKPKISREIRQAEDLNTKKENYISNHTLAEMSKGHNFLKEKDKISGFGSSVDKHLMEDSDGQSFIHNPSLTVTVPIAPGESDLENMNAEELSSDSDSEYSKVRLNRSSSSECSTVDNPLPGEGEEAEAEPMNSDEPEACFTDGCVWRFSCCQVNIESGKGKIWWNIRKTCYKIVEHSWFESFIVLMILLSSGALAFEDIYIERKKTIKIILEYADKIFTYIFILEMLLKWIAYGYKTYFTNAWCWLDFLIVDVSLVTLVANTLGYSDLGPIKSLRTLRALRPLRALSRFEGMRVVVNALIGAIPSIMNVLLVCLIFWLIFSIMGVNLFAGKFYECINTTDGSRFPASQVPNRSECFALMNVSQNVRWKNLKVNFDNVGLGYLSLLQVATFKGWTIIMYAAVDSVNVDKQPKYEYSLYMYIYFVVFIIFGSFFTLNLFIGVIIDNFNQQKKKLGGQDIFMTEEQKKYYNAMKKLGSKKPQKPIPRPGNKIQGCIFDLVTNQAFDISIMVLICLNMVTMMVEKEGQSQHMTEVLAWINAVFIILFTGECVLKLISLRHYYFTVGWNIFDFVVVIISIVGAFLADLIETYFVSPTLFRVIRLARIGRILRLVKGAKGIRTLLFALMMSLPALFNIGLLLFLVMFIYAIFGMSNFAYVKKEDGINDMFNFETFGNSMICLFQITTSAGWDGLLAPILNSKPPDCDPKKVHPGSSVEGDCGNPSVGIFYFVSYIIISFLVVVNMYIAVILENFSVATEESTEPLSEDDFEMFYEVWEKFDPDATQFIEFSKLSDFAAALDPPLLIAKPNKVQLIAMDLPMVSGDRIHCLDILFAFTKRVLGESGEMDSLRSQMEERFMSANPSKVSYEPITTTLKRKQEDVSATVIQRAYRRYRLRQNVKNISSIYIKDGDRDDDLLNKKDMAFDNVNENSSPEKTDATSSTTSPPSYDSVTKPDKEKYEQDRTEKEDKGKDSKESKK
T2 sequence (Q07699 19-218 partner): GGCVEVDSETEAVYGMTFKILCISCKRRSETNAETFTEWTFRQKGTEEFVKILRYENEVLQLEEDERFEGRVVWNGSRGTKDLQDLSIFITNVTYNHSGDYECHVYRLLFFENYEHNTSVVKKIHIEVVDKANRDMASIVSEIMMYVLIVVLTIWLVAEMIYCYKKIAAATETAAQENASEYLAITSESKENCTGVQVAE
T2 sequence (O60939 30-215 partner): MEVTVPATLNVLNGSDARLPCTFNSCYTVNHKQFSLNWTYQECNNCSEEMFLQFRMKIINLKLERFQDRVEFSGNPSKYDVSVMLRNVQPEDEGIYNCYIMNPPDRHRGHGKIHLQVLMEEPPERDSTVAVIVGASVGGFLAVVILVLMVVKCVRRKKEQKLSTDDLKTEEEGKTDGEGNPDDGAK
From the text: as §1, §2

[3] = target: T3, Nav1.7 E1545A/E1600A (Homo sapiens, UniProt Q15858, E1545A/E1600A); experiment: as above; format: cell-based; details: 1 μM
T3 construct: expressed in transfected cells; host or cells: HEK293T
T3 sequence (Q15858 whole entry E1545A/E1600A): as the sequence (Q15858 whole entry Y1548A/V1552A/M1593A) above, with E1545A, A1548Y, A1552V, A1593M, E1600A counted along it
T3 sequence (Q07699 19-218 partner): as the sequence (Q07699 19-218 partner) above
T3 sequence (O60939 30-215 partner): as the sequence (O60939 30-215 partner) above
From the text: as §1, §2

[4] = system: formalin-induced acute inflammatory pain model in mice; experiment: Formalin-induced inflammation pain model; format: in vivo, ICR mice; details: 30 min before formalin
Protocol: The formalin-induced acute inflammatory pain model in mice, achieved through the plantar injection of formalin aqueous solution, is another widely used model for acute inflammatory pain. This model comprises 2 stages: an initial phase ([…]) where pain is triggered by formalin's direct stimulation of nociceptive receptors on sensory neurons, followed by a second phase (15 to 40 min) characterized by persistent inflammatory pain due to tissue damage. Similarly, both i.g. and i.m. methods were used to evaluate the effect of WN2-R in this model (n = 6) (Fig. 6B and I). […] These findings were consistent across repeated experiments.
To induce the pain response, 20 μl of formalin (5%, w/v) was injected subcutaneously into the right hind paw of ICR mice (3 male and 3 female). Prior to the formalin injection, mice were preadministered with WN2-R (5 mg/kg i.g., 1 mg/kg i.m.), PF05089771 (5 mg/kg i.g., 1 mg/kg i.m.), or saline 30 min beforehand. The duration of licking/biting the injected paw was recorded every 5 min, commencing immediately after the formalin injection and continuing for 40 min. Phase I and II in this assay corresponded to the nociceptive response observed between 0 and 5 min and between 10 and 40 min, respectively.

T1 sequence (Q15858 whole entry Y1548A/F1609A): as the sequence (Q15858 whole entry Y1548A/V1552A/M1593A) above, with A1552V, A1593M, F1609A counted along it
T1 sequence (Q07699 19-218 partner): as the sequence (Q07699 19-218 partner) above
T1 sequence (O60939 30-215 partner): as the sequence (O60939 30-215 partner) above

Which results are given for `Cc1ccc(Cn2cc([C@H](CC(=O)NCCN(C)C)c3ccc(F)cc3)c3ccccc32)cc1` [WN2-R]?
Effect of the mutation on antagonistic activity [1]: minimal effects; Effect of the mutation on antagonistic activity [2]: minimal effects; Effect of the mutation on antagonistic activity [3]: inhibitory effect on WN2-R activity; Licking time in phase I vs saline ([4]; i.g., 5 mg/kg): significantly reduced licking time; Licking time in phase II vs saline ([4]; i.g., 5 mg/kg): failed to significantly reduce licking time; Licking time in phase I vs saline ([4]; i.m., 1 mg/kg): significantly reduced licking time; Licking time in phase II vs saline ([4]; i.m., 1 mg/kg): significantly reduced licking time
